This assay relates to iPS-HEP cells. Kind of assay: ammonia metabolism test (Ammonia Test Wako) on iPS-derived hepatocytes. The assay is classed as cell-based, human. To be noted: compounds in differentiation induction medium III (FH1 final 50 μM, FPH1 final 20 μM); compared with use of feeder cells (HUVECs, MSCs); 2 mM ammonia, 24 hours. Here is the method:
When HUVEC and MSC are used as feeder cells, perform co-culture as required as adhesion culture (refer to Non-patent document 1 cited below). • 2.11. Indicate the date, name of the cells, etc. on the culture plate, and carry out culture in an incubator at 37° C. and 5% CO2. • 2.12. Carry out an operation of removing the supernatant, and adding flesh medium III on every other day up to Day 17. • [Day 17: Completion of CiPS-Hep->ammonia metabolism test] • 1. Prepare HBM (cocktail)+aqueous ammonia (henceforth referred to as ammonia medium) in a volume of 1 ml/well×2.
• 2. Remove the culture supernatant, and wash the cell surfaces once with 1 ml of HBM, and once with ammonia HBM. • 3. […]
• 4. […] During the centrifugation, turn on the power sources of microplate reader and personal computer, and choose Tecan i-control. • 8. […] Remove a lid, set the plate on the microplate reader, and sway the plate (double click “Shaking”, choose “10 sec” and “Normal”, and click “Start”). • 11. […] Set the plate on the microplate reader, and sway the plate. • 13. […] Set the plate on the microplate reader, and sway the plate. • 15. […] Finely wipe the bottom of the plate, and set the plate on the microplate reader with adjusting the upper left corner. • 18. Measure absorbance (620 or 630 nm) (double click “Measure” of “Absorbance”, select the well for measurement at 620 nm in “Details”, and click “Start”).

Molecules are shown by their SMILES. “Also recorded” adds a separate entry of the source.

On to `CC(=O)Nc1ccc(Cc2ccc(NC(C)=O)cc2)cc1` [FH1, N,N′-(methylenebis)(4,1-phenylene)diacetamide], for which the ammonia-metabolizing function-enhancing effect entry was “higher ammonia-metabolizing function-enhancing effect compared with use of feeder cells; also recorded: higher metabolism-enhancing effect compared with use of feeder cells”. As to `Cc1ccc(Cl)cc1N(CC(=O)Nc1c(F)cccc1F)S(C)(=O)=O` [FPH1, 2-N-(5-chloro-2-methylphenyl)(methylsulfonamido)-N-(2,6-difluorophenyl)acetamide], the ammonia-metabolizing function-enhancing effect result is reported as “higher ammonia-metabolizing function-enhancing effect compared with use of feeder cells; also recorded: higher metabolism-enhancing effect compared with use of feeder cells”.
